Marks after values point to notes of the source that are not given here.

The source of these data is patent publication US8367659B2, “Oxazinyl isoflavonoid compounds, medicaments and use” (Marshall Edwards, Inc., priority 2007, dated 2013).

The subject of assay [1] is PGE2 synthesis in RA-stimulated U937 cells. The assay can be described thus: PGE2 synthesis in RA-stimulated U937 cells. Type of assay: cell-based, human. The procedure: U937 cells were thawed and resuspended in RPM1 and 10% FCS at 2×10^5 cells per ml. The cells were incubated in 5% CO2 at 37° C. and expanded in growing culture to at least 6.4×10^7 total cells. The cells were then resuspended in fresh medium and cultured with […] (RA) at 2×10^5 cells per ml for a further 3 days (72 h). RA treated cells were washed 2× in serum-free RPM and resuspended in serum-free medium at 5×10^6 cells per ml. The cells were aliquotted into Teflon tubes at 1 ml per tube. Working stock solutions of each test compound were prepared at 0.1 mM, 1 mM and 10 mM as described above. For each test compound at each working dilution, 10 μl was added to 1 ml cells to achieve a final concentration of 0 (DMSO alone), 1, 10, and 100 μM for each test compound. Cells were incubated in triplicate with each concentration of test compound for 15 min at 37° C. After 15 min pre-incubation, each 1 ml tube of cells received 5 μl of a […] solution of the calcium ionophore A23187 (to achieve 0.5 μM A23187). Incubation at 37° C. was continued for a further 30 min. After incubation, supernatants were collected by centrifugation at 2000 rpm for 10 min and stored at −20° C. until required for assay.

The subject of assay [2] is NFκB-promoter activity in TNFa-stimulated THP-1 monocyte/macrophages. The assay can be described thus: NFκB promoter activity in TNFα-stimulated THP-1 cells (beta-lactamase reporter). Type of assay: cell-based, human. The note with it: for inhibition at 30 µM: Homo sapiens, THP-1, read-out: % inhibition compared to control; for inhibition at 30 µM / Inflammatory index: test compound 30 μM; for Inflammatory index: control 11.56 ± 0.49. The procedure:
The assay utilizes a genetically modified THP-1 cell line and GeneBLAzer® beta-lactamase technology (Invitrogen Corp). The human THP-1 monocyte/macrophages contain a stably-transfected beta-lactamase reporter gene under control of the NFκB response element They respond to stimulation with TNF-a, which leads to activation of the NFκB signaling pathway. Co-incubation of cells with TNF-a and test material allows quantitative determination of the ability of test material to inhibit TNFa-stimulated beta-lactamase production. Inflammatory index is calculated as the ratio of beta-lactamase product to beta-lactamase substrate. In brief, genetically modified THP-1 cells were seeded into wells of a 96-well plate (50×10^3 cells/well) in the presence of RPMI 1640 medium (70 μl). TNFα was added to each well (10 μl) to give a final concentration of 7.5 ng/ml. Dialyzed bovine serum was added (10 μl). Compounds dissolved in DMSO (10 μL) were then added (5 wells for each compound). Each plate contained a no-cell control (4 wells), a no-serum control (4 wells) and two serum controls. Plates were incubated for 5 h at 37° C. to allow for NFκB-stimulated beta-lactamase production. LiveBLAzer™ FRET B/G Substrate (CCF4-AM) substrate was then added to assay. CCF4-AM is a Forster resonance energy transfer (FRET) based substrate for beta-lactamase developed by Invitrogen Corp. Once CCFA-AM enters a cell, it is converted to negatively charged CCF4 by endogenous esterases. Excitation of this substrate at 409 nm leads to efficient FRET between the coumarin and fluorescein moieties, resulting in a green fluorescence detectable at 530 nm. The presence of beta-lactamase leads to cleavage of CCF4 and results in a loss of FRET, resulting in a robust blue fluorescent signal detectable at 460 nm. Thus, activity of beta-lactamase (a marker of NFκB-promoter activity) is measured as a product to substrate ratio (blue/green fluorescence ratio: 460 nm/530 nm). The determination of inflammatory index has a within-plate CV of 2.1% and a between-plate CV of 8.9% This comparative study was conducted according to the assay method set out in the example at Section 2.4 above.

A further assay deals with red blood cells (RBC). The assay can be described thus: Peroxyl radical (AAPH)-induced red blood cell lysis. The note with it: for Time taken to reach half-lysis, time: test compounds at 10 μM, vehicle 40.0. Type of assay: cell-based. As for the experimental part: Freshly collected heparinised venous blood (10 ml, on ice) was aliquotted into 1.8 ml sterile Eppendorf tubes and centrifuged for 10 minutes at 2600 rpm at 4° C. Plasma and buffy coat layers were removed (approximately […]) and packed red blood cells (RBC) were then washed by the addition of […], ice cold PBS. This washing procedure was repeated twice. Packed RBC were resuspended by the addition of 900 ml of ice-cold, sterile PBS (and termed RBC stock). RBC stocks were stored at 4° C. for a maximum of three days. All working suspensions of RBC were prepared fresh daily by diluting […] of RBC stock into 10 ml of ice-cold, sterile PBS and […] added to each well.
Stocks of AAPH were freshly prepared for individual experiments as follows. AAPH (1.22 gm) was dissolved in 7.5 ml of PBS to yield a 4× stock at 600 mM and […] aliquots (final concentration of 150 mM) were then added to each well to initiate the lysis assay. Stock solutions of test compounds (40 mM in 100% DMSO) were diluted in sterile PBS to yield final concentrations of […] per well. Appropriate controls were included in each experiment. All compound dilutions were adjusted to give final DMSO concentrations in each well of 0.25%. Peroxy-induced RBC lysis assays were performed in 96-flat bottom well microtitre plates with a total volume of […] per well. Turbidity of RBC suspensions were monitored using a Tecan microplate reader at 690 nm (37° C.) with gentle vortexing. Assays were performed in quadruplicate and readings were taken every 5 minutes over 5 hours. RBC lysis curves were constructed by plotting absorbance (mean of 4 readings) against time. Time to half-lysis was calculated by taking the highest absorbance reading (no lysis) and the lowest absorbance reading (maximum lysis). The sum of these two readings divided by two gave the absorbance at half-lysis. Simple regression analysis was used to calculate the time at which half-lysis absorbance occurred.
This comparative study was conducted according to the assay method set out in the example at Section 3.3 above.

A further assay deals with A10 smooth muscle cells. Put plainly: Proliferation of A10 smooth muscle cells from the media of rat aorta. Type of assay: cell-based. As to conditions: A10, 72 h, three days, read-out: IC50, inhibition of proliferation in A10 cells. The procedure: The effect of test compounds on human umbilical vein smooth muscle cells (HUVSMC), was examined. Cells, tissue explants from a neonate (HRI—passage 2), were seeded into 96 well plates at 1×10^3 cells per well, and allowed to attach for 24 hours. They were then washed twice and incubated in medium without foetal calf serum (FCS) for 24-48 hours to serum-starve them. Test compounds were prepared in medium without FCS and added to the plates and incubated for one hour. Medium with FCS was added to give a final concentration of 10% and the plates incubated for 4-5 days until the controls were just confluent.
The effect of test compounds on rat aortic smooth muscle cell line (A7r5) and another cell line from the media of rat aorta (A10) was examined. The methodology was the same as for HUVSMC, except that the cells were treated with compound for three days.

On to `Oc1ccc(C2=Cc3cc4c(cc3OC2)OCN(Cc2ccccc2)C4)cc1` [Compound 1, 4-(3-Benzyl-2,3,4,8-tetrahydrochromeno[6,7-e][1,3]oxazin-7-yl)phenol], for which the “PGE2” value was found to be 1.431 ± 0.154 pg in assay [1] (test compound 1 μM, A23187); 0.702 ± 0.237 pg in assay [1] (test compound 10 μM, A23187); 0.555 ± 0.064 pg in assay [1] (test compound 100 μM, A23187). Besides, the inhibition at 30 µM in assay [2] is 45.5%. The compound also registered an Inflammatory index in assay [2] of 6.31 ± 0.36. In addition, the “Time taken to reach half-lysis, time” value in the assay on red blood cells (RBC) (Table 8) is 141.6 min; with red blood cells (RBC) (comparative, Table 14) it was 141.6 min. Further, the IC50 with A10 smooth muscle cells is 11 µM.

Regarding `CC(c1ccccc1)N1COc2cc3c(cc2C1)C=C(c1ccc(O)cc1)CO3` (centres unmarked) [Compound 2, 4-(3-(1-Phenylethyl)-2,3,4,8-tetrahydrochromeno[6,7-e][1,3]oxazin-7-yl)phenol], the “effect on PGE2 synthesis” value in assay [1] is given as “inhibit PGE2 synthesis”. For the same compound, the “PGE2” value is 1.303 ± 0.044 pg in assay [1] (test compound 1 μM, A23187) and 0.948 ± 0.111 pg in assay [1] (test compound 10 μM, A23187). For the same compound, the “PGE2 (pg)” value in assay [1] (test compound 100 μM, A23187) is on record as 0.158 ± 0.027^a pg. Also, the inhibition at 30 µM in assay [2] was determined as 34.8%. Moreover, the Inflammatory index in assay [2] is reported as 7.54 ± 0.17. Further, the “antioxidant activity, AAPH-induced time to half-lysis of red blood cells” value in the assay with red blood cells (RBC) was “delaying the AAPH-induced time to half-lysis”. Also, in the assay on red blood cells (RBC) (Table 8), the “Time taken to reach half-lysis, time” value is 124.3 min.

On to `Oc1cccc(C2=Cc3ccc(O)cc3OC2)c1` [Compound 37-DHE, 3′,7-dihydroxy-isoflav-3-ene, reference compound], for which the “NFκB inhibition” value in assay [2] (30 μM, FIG. 19) is on record as “inhibited NFκB”. Besides, the “antioxidant activity, AAPH-induced time to half-lysis of red blood cells” value in the assay on red blood cells (RBC) is given as “delaying the AAPH-induced time to half-lysis”. Also, the “Time taken to reach half-lysis, time” value in the assay on red blood cells (RBC) (comparative, Table 14) came to 126.6 min. In addition, in the assay on A10 smooth muscle cells, the IC50 is 31 µM.
